From patent publication US20260365670A1, “EGFR INHIBITORS AND USES THEREOF” (DIZAL (JIANGSU) PHARMACEUTICAL CO., LTD., priority 2022, published 2026)
pIC50: −log10 of the molar value. Read-outs that look alike come from different tables or passages of the source.

Tests used:
EGFR wild type = molecular target: T1, EGFR wild type (Homo sapiens, UniProt P00533); test: Inhibition of EGFR wild type biochemical enzymatic activity (HTRF); details: EGFR WT, 1 mM ATP, 1 h, room temperature, read-out: IC50 (nM) @WT
T1 construct: purchased Carna Bio
Summary of the method: (§1)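 Recombinant kinases phosphorylated 1 μM biotinylated TK substrate with 1 mM ATP in buffer with 5 mM MgCl2, 1 mM MnCl2, 0.01% CHAPS, 1 mM DTT, 0.5% DMSO. Reaction ran 1 h at room temperature, stopped with EDTA-containing detection mix. HTRF 665/615 nm ratio gave IC50 via four-parameter logistic fit.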

EGFR L858R = molecular target: T2, EGFR L858R (Homo sapiens, UniProt P00533, L858R); test: Inhibition of EGFR L858R biochemical enzymatic activity (HTRF); details: 1 mM ATP, 1 h, room temperature, read-out: IC50 (nM) @L858R
T2 construct: purchased Carna Bio
T2 sequence (P00533 25-1210 L858R): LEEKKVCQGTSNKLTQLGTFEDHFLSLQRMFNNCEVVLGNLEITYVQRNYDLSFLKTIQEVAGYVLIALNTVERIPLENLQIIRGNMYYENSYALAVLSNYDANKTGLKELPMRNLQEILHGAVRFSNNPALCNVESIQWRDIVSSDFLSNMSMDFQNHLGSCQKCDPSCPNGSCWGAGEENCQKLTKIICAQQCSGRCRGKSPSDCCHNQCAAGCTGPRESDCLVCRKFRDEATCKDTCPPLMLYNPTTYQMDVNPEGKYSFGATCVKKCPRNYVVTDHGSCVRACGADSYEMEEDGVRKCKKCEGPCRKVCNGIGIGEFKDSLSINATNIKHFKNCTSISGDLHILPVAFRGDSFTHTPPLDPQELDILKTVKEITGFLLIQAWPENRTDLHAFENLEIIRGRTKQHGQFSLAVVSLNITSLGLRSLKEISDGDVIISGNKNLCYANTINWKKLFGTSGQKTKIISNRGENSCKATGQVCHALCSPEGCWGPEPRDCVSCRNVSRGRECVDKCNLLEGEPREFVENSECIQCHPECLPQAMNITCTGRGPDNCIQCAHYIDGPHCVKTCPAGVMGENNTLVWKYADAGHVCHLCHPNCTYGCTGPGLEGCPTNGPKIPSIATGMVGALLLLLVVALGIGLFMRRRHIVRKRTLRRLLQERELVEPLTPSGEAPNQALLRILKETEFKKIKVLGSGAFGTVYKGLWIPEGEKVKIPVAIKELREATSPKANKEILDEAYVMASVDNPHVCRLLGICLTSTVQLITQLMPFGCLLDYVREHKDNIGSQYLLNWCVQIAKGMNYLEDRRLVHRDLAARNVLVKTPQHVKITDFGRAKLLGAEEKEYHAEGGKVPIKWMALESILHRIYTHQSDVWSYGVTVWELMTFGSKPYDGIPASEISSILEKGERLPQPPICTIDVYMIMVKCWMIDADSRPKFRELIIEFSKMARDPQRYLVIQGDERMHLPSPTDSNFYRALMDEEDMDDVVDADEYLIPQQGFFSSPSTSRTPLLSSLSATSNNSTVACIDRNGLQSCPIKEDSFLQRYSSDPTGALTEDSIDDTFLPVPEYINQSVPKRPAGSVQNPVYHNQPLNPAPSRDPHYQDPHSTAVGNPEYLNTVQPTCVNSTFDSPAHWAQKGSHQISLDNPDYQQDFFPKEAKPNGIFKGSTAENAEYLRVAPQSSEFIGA
Summary of the method: as §1

EGFR L858R/T790M = molecular target: T3, EGFR L858R/T790M (Homo sapiens, UniProt P00533, L858R/T790M); test: Inhibition of EGFR L858R/T790M biochemical enzymatic activity (HTRF); details: EGFR L858R-T790M, 1 mM ATP, 1 h, room temperature, read-out: IC50 (nM) @L858R-T790M
T3 construct: purchased Carna Bio
T3 sequence (P00533 25-1210 T790M/L858R): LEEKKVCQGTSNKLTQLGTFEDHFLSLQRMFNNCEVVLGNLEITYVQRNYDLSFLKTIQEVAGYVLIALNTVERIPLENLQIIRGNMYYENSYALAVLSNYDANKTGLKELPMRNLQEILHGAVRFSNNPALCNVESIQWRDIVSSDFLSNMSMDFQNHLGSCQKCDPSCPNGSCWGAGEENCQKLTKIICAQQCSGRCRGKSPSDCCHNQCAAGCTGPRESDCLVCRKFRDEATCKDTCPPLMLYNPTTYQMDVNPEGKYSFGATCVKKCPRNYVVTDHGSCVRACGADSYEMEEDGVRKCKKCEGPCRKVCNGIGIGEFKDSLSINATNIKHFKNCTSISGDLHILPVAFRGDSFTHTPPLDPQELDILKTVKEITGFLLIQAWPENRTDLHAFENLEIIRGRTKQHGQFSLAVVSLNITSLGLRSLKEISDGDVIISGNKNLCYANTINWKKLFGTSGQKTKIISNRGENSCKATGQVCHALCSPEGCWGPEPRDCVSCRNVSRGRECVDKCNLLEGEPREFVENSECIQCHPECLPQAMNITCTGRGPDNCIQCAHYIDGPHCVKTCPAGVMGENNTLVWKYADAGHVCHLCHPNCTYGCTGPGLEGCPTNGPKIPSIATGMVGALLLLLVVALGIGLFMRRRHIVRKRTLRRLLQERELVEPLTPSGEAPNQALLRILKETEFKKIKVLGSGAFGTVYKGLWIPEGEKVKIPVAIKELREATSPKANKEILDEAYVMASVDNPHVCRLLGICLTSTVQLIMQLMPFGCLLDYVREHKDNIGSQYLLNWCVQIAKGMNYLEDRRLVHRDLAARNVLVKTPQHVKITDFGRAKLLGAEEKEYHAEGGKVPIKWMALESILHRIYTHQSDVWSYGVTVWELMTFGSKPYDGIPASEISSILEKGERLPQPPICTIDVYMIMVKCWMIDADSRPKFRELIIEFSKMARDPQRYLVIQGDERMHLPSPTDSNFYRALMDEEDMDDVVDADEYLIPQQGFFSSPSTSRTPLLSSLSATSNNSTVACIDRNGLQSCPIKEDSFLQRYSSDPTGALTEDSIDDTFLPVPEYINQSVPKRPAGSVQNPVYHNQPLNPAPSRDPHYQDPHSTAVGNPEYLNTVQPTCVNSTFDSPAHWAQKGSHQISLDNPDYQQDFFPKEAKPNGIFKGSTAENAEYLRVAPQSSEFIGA
Summary of the method: as §1

EGFR Exon19Del = molecular target: T4, EGFR Exon19Del (Homo sapiens, UniProt P00533, DEL746-750); test: Inhibition of EGFR Exon19Del biochemical enzymatic activity (HTRF); details: EGFR Del19, 1 mM ATP, 1 h, room temperature, read-out: IC50 @Del19
T4 construct: purchased Carna Bio
T4 sequence (P00533 with tags, fused parts or gaps DEL746-750 limits assumed): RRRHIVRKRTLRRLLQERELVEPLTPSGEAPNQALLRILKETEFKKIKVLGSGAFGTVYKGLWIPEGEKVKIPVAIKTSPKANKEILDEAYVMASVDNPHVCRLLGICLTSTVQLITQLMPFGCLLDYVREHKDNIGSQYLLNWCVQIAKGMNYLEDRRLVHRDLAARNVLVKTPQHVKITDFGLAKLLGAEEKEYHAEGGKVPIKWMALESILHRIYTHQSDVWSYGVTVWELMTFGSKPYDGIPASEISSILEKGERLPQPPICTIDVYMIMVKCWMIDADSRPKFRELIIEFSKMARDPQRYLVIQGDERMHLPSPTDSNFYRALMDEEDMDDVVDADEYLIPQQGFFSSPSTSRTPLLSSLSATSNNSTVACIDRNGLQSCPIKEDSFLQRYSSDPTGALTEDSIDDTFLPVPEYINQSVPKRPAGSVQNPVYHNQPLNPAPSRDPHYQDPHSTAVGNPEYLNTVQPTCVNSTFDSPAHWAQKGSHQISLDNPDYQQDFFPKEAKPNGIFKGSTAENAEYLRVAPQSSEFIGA
Summary of the method: as §1

EGFR Exon19Del/T790M = molecular target: T5, EGFR Exon19Del/T790M (Homo sapiens, UniProt P00533, DEL746-750/T790M); test: Inhibition of EGFR Exon19Del/T790M biochemical enzymatic activity (HTRF); details: EGFR Del19-T790M, 1 mM ATP, 1 h, room temperature, read-out: IC50 (nM) @Del19-T790M
T5 construct: purchased Carna Bio
T5 sequence (P00533 with tags, fused parts or gaps DEL746-750/T790M limits assumed): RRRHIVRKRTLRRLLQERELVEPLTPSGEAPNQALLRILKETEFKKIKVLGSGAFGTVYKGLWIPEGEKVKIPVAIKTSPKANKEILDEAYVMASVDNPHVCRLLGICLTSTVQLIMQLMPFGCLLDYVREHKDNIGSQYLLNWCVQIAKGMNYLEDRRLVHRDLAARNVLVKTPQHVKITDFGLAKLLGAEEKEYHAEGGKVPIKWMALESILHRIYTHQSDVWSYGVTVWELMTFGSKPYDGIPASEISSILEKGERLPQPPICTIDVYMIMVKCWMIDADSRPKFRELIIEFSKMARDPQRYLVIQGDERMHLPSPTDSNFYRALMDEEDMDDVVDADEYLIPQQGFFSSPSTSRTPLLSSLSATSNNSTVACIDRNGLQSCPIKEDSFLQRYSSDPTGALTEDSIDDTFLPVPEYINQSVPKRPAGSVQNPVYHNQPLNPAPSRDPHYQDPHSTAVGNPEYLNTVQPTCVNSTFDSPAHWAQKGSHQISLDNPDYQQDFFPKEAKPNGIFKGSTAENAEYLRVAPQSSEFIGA
Summary of the method: as §1

EGFR[T790M/C797S/L858R] = molecular target: T6, EGFR[T790M/C797S/L858R] (Homo sapiens, UniProt P00533, C797S/L858R/T790M); test: Inhibition of EGFR[T790M/C797S/L858R] biochemical enzymatic activity (HTRF); details: EGFR T790M-C797S-L858R, 1 mM ATP, 1 h, room temperature, read-out: IC50 (nM) @T790M- C797S - L858R
T6 construct: purchased Carna Bio
T6 sequence (P00533 25-1210 T790M/C797S/L858R): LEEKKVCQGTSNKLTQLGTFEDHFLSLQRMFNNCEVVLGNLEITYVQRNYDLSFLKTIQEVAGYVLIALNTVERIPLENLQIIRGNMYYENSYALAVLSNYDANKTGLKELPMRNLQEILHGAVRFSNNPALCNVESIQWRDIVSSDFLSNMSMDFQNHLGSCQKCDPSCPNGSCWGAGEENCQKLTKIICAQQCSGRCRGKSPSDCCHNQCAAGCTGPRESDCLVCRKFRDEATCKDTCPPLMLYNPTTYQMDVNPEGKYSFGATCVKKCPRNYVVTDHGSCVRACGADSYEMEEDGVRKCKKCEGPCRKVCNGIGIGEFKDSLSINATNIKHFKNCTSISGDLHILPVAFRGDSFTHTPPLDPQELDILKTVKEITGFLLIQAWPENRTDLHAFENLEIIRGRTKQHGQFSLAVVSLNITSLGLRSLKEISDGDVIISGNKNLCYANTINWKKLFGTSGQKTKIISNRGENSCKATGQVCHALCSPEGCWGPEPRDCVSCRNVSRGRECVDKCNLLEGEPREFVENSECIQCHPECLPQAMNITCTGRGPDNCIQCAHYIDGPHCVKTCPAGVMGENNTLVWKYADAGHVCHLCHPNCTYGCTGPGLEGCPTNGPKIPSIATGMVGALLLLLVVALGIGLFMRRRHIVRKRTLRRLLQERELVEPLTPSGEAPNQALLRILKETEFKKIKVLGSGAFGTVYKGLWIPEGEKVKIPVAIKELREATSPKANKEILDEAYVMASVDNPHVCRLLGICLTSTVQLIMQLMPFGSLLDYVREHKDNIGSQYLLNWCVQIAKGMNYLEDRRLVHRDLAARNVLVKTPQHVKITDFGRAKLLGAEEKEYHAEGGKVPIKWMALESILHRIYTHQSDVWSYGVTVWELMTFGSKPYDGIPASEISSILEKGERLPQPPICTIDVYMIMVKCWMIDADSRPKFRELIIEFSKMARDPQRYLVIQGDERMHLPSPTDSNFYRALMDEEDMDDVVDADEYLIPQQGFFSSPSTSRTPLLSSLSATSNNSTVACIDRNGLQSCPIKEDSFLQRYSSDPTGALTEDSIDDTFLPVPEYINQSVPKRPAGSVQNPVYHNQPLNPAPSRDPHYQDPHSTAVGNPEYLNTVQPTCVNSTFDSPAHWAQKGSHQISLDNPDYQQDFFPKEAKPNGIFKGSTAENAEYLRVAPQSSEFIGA
Summary of the method: as §1

[1] = molecular target: T7, EGFR[T790M/C797S/d746-750] (Homo sapiens, UniProt P00533, C797S/DEL746-750/T790M); test: Inhibition of EGFR[T790M/C797S/d746-750] biochemical enzymatic activity (HTRF); details: EGFR T790M-C797S-Del19, 1 mM ATP, 1 h, room temperature, read-out: IC50 (nM) @T790M - C797S - Del19
T7 construct: purchased Carna Bio
Summary of the method: as §1

EGFR (d746-750 C797S) = molecular target: T8, EGFR (d746-750 C797S) (Homo sapiens, UniProt P00533, C797S/DEL746-750); test: Inhibition of EGFR (d746-750 C797S) biochemical enzymatic activity (HTRF); details: EGFR Del19-C797S, 1 mM ATP, 1 h, room temperature, read-out: IC50 (nM) @Del19-C797S
T8 construct: purchased signalchem
Summary of the method: as §1

EGFR (C797S L858R) = molecular target: T9, EGFR (C797S L858R) (Homo sapiens, UniProt P00533, C797S/L858R); test: Inhibition of EGFR (C797S L858R) biochemical enzymatic activity (HTRF); details: EGFR L858-C797S, 1 mM ATP, 1 h, room temperature, read-out: IC50 (nM) @L858-C797S
T9 construct: purchased signalchem
Summary of the method: as §1

[2] = tested on: Ba/F3 cells expressing EGFR mutations; test: Cell proliferation assay, Ba/F3 cells expressing EGFR mutations (CellTiter-Glo, 72 hours); type: cell-based; details: Mus musculus, BaF3, 72 h
Summary of the method: (§2)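 Seed Ba/F3 at 5000 cells/well and PC-9 at 500 cells/well (10% FBS RPMI1640); incubate overnight; add compound dilution series; read a G0 plate; incubate; read G3; GI50 from best-fit curve.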

PC-9 = test: Cell proliferation assay, PC-9 cells (CellTiter-Glo, 72 hours); type: cell-based; details: Homo sapiens, PC-9, 72 h, PC9 cells, read-out: GI50 PC9
Summary of the method: as §2

A-431 = test: Cell proliferation assay, A-431 cells (GI50, Table 6); type: cell-based; details: Homo sapiens, A-431, A-431 cells
[3] = BaF3 cells, EGFR DEL19 - C797S, read-out: GI50 DEL19 - C797S/BaF3
[4] = BaF3 cells, EGFR DEL19 - T790-C797S, read-out: GI50 DEL19 - T790-C797S/BaF3
[5] = BaF3 cells, EGFR L858R - C797S, read-out: GI50 L858R - C797S/BaF3
[6] = BaF3 cells, EGFR L858R - T790-C797S, read-out: GI50 L858R - T790-C797S/BaF3
[7] = BaF3 cells, EGFR L858R - T790M, read-out: GI50 L858R - T790M/BaF3
[8] = BaF3 cells, EGFR L858R, read-out: GI50 L858R/BaF3
[9] = EGFR DEL19 - T790M, read-out: GI50 DEL19 - T790M

Row | IC50 (EGFR wild type) [nM] | IC50 (EGFR L858R) [nM] | IC50 (EGFR L858R/T790M) [nM] | pIC50 (EGFR Exon19Del) | IC50 (EGFR Exon19Del/T790M) [nM] | IC50 (EGFR[T790M/C797S/L858R]) [nM] | IC50 [1] [nM] | IC50 (EGFR (d746-750 C797S)) [nM] | IC50 (EGFR (C797S L858R)) [nM] | GI50 [2, 3] [nM] | GI50 [2, 4] [nM] | GI50 [2, 5] [nM] | GI50 [2, 6] [nM] | GI50 [2, 7] [nM] | GI50 [2, 8] [nM] | GI50 [2, 9] [nM] | GI50 (PC-9) [nM] | GI50 (A-431) [nM] | Compound
1 | 954 | 24 | 7.2 | 8.15 | 4.3 | 11 | 7.3 | 36 | 3.1 | 7.5 | 1.7 | 58 | 5.2 | 11 | 41 | 2.5 | 52 | 2020 | Cc1cc2cc(n1)-c1cnn(C)c1OCCN1CC3CCC(CC3)(C1)n1c(nc3ccc(N4CCN(C)CC4)cc31)NC2=O [Example B3, 15,21-dimethyl-5-(4-methylpiperazin-1-yl)-23-oxa-2,9,11,16,20,21,26-heptaazaheptacyclo[26.2.2.1^{1,26}.1^{13,17}.0^{2,10}.0^{3,8}.0^{18,22}]tetratriaconta-3,5,7,9,13,15,17(34),18(22),19-nonaen-12-one]
2 | > 5000 | > 5000 | 847 | 6.23 | 33 | 532 | 16 | 243 | 3630 | 125 | 61 | 342 | 42 |  | 612 | 57 | 292 | 3530 | Cc1cc2cc(n1)-c1cnn(C)c1OCCN1CCCCC(C1)n1c(nc3ccccc31)NC2=O (centres unmarked) [Example B4, 15,21-Dimethyl-23-oxa-2,9,11,16,20,21,26-heptaazahexacyclo[24.4.1.1^{13,17}.0^{2,10}.0^{3,8}.0^{18,22}]dotriaconta-3,5,7,9,13(32),14,16,18(22),19-nonaen-12-one]
3 | > 5000 | 440 | 13 | 6.97 | 5.1 | 7.1 | 4.1 | 48 | 195 | 62 | 31 | 66 | 9.1 | 7 | 144 | 41 | 115 | 2820 | Cc1cc2cc(n1)-c1cnn(C)c1OCCN(CC(F)F)CCn1c(nc3ccccc31)NC2=O [Example B5]
